# According to patent US6780641B2, “Immortalized human microglia cell line” (University of British Columbia, priority 2000, dated 2004):
# Entries after “also recorded” stand apart in the source; their conditions may differ.
# Assays:
# HMO6.A1 cells [1] = assay: RT-PCR analysis of gene expression in agent stimulated HMO6.A1 cells; format: cell-based, human; conditions: for P2Y2 receptor expression / B7-2 mRNA expression: HMO6.A1, RT-PCR; for B7-2 mRNA expression: 24 hr incubation; for Stimulated HMO6 cell expressed active substance(s): RT-PCR, agent stimulated HMO6 cells
# From the text: The information of Table E1 is provided merely as a convenience to the reader and utilizes conventional gene sequences.
# Sense and antisense primers of each primer pair given by Table E1 were set at a different exon, respectively, to avoid DNA contamination. To assess the character of HMO6.A1 cells, the expression of cytokines (IL-1β, -2, -3, -4, -5, -6, -7, -8, -9, -10, -11, -12, -13, -15, and TNF-α), chemokines (macrophage inflammatory protein (MIP)-1α, MIP-1β, and monocyte chemoattractant protein (MCP)-1) was examined by RT-PCR. Total RNA was extracted using Trizol reagent (GIBCO-BRL, Gaithersburg, Md.). Complimentary DNA (cDNA) templates from each sample were prepared from 2 μg of total RNA primed with oligo dT primers (Pharmacia, Gaithersburg, Md.) using 400 units of MMLV reverse transcriptase (GIBCO-BRL) followed by 25 PCR amplification cycles (94° C. for 30 seconds, annealing at 60° C. for 60 seconds, and extension at 72° C. for 90 seconds). This cycle number allowed a linear cDNA dose-response. Glyceraldehyde-3-phosphate dehydrogenase (G3PDH) was used as a reaction standard [Ercolani et al., J. Biol. Chem. 263: 15335-15341 ([…])].
# To confirm the purity of cell preparation, cDNA from microglia-enriched cultures were amplified for B7-2 (CD86, for microglia); GFAP (a cell type-specific marker for astrocytes); myelin basic protein (MBP, for oligodendrocytes); and neurofilament-M (NF-M, for neurons). For characterization of HMO6.A1 cells, mRNA expression of marker proteins specific for each cell type was also investigated. Gene expression of CD68, P2Y1 purinergic receptor (P2Y1R), P2Y2R, CXCR4 which are expressed in embryonic human microglia (HM) was also examined in HMO6.A1 cells. […] of each PCR product was analyzed by 1.5% agarose gel electrophoresis. Authentic bands were determined by selective enzyme digestion.
# […] LPS at 100 ng/ml was used in microglial cultures since LPS is a potent activator of microglia [Gebicke-Haeter et al., J. Neurosci. 9: 187-194 (1989); Suzumura et al., Brain Res. 545: 301-306 (1991)].
# HMO6.A1 cells [2] = assay: Fura-2 Ca2+ fluorescence in HMO6.A1 cells; format: cell-based, human; conditions: ATP 100 μM; ionomycin 10 μM after ATP perfusion; n=7 cells
# Protocol: The cultured HMO6.Al cells were loaded for 25 min with the Ca^2+ indicator fura-2-acetoxymetethylester (fura-2AM). The dye was applied with pleuronic acid (both at concentrations of 1 μM) to normal physiological solution (PSS) at room temperature (20-22° C.). Following a 5 min wash in dye-free solution, the coverslips were placed on the stage of a Zeiss Axiovert inverted microscope containing a ×40 quartz objective lens. Alternating excitation wavelengths (340/380 nm) of UV light were applied at intervals of 8 s and fluorescence signals were obtained at 510 nm of emission light (bandwidth of 4 nm) from 8-20 cells in the field of view. Signals were acquired from a digital camera (DVC-1310, DVC Co., Austin, Tex.) and were processed using an imaging system (Empix, Mississauga, ON) to determine ratios of the 340 nm and 380 nm intensities which have been used as quantitative measures of fluorescence levels in this work.
# All studies were done at room temperature (20-22° C.) and values obtained from multiple cells are reported as mean ±SEM with statistical significance for p≦0.05 using the Student's t-test.
# The purinergic agonist ATP (at 100 μM) was applied to HMO6.A1 cells using calcium sensitive fluorescence microscopy. The results from a representative experiment are presented by FIGS. 3A and 3B which show an ATP-induced increase in [Ca^2+]i from n=7 cells. […]
# HMO6.A1 cells [3] = assay: ELISA of cytokines/chemokines released from HMO6.A1 cells; format: cell-based, human; conditions: for MIP-1α amount of release / levels of IL-8 in the supernatant: HMO6.A1, 48 hours; for levels of IL-8 in the supernatant: versus non-treated controls
# Protocol: (§1) Production of TNF-α, IL-1β, IL-6, IL-8 or MIP-1α in normal human microglial cells or HMO6.A1 cells was determined in spent culture supernatants using ELISA kits specific for human TNF-α, IL-1β, IL-6, IL-8 or MIP-1α (R&D Systems, capable of detecting TNF-α at 4.4 pg/ml, IL-1β at 1 pg/ml, IL-6 at 0.70 pg/ml, IL-8 at 10 pg/ml and MIP-1α at 10 pg/ml). At the end of each experiment, culture supernatants were collected, centrifuged, and stored at −70° C.
# (§2) FIGS. 6A-6E are graphs presenting ELISA analyses of cytokines and chemokines released from normal human microglia and HMO6 immortalized human microglia cell line. Cells were plated in 6-well plates, stimulated for 48 hours with or without 20 ug/ml β-amyloid or 10 ng/ml LPS, and then cytokine/chemokine production in spent media was measured. Values represent mean±SEM from 3 experiments.
# [4] = tested on: embryonic human microglia (HM); assay: RT-PCR analysis of gene expression in embryonic human microglia (HM) after Aβ25-35/LPS; format: cell-based; conditions: 6 hr
# [5] = tested on: normal human microglial cells; assay: ELISA of cytokines/chemokines released from normal human microglia (HM); format: cell-based; conditions: for IL-6 levels in the culture supernatant: cell type (HM or HMO6.A1) not given; for levels of IL-8 in the supernatant: versus non-treated controls
# Protocol: as §1, §2
# [6] = tested on: embryonic human microglia; assay: GM-CSF stimulated proliferation of embryonic human microglia; format: cell-based; conditions: GM-CSF 8 μg/ml for 9-12 days
# Protocol: It is also desirable that, for the last part of this time, microglia are exposed to granulocyte macrophage colony stimulating factor (GM-CSF) at final concentration of 8 ug/ml for 9-12 days with a medium change every 3 days. GM-CSF treatment stimulated proliferation of microglia results in a 3-4 fold increase in microglial population.
# As illustrated by FIG. 1, an amphotropic replication-incompetent retroviral vector encoding v-myc oncogene (transcribed from mouse leukemia virus LTR plus neomycin-resistant gene transcribed from a SV40 early promotor) was used to infect human microglia inducing propagation of immortalized human microglial cell lines. This amphotropic vector, PASK 1.2, was generated using the ecotropic retroviral vector encoding v-myc (obtained from the American Type Culture Collection, Rockville, Md.) to infect PA318 amphotropic packaging cell line. Microglia were exposed to granulocyte macrophage colony stimulating factor (GM-CSF) at final concentration of 8 μg/ml for 9-12 days with medium change every 3 days. GM-CSF treatment stimulated proliferation of microglia resulting in 3-4 folds increase in population. Microglia treated with GM-CSF for 9-12 days were subjected to retrovirally mediated transduction of v-myc by PASK 1.2 construct and subsequent cloning.
# [7] = HMO6, treatment time not stated
molecule,measurement,setting,value
"IL-1β: Recombinant human IL-1β (10 ng/ml, R&D Systems)",P2Y2 receptor expression,HMO6.A1 cells [1],expressed
same,B7-2 mRNA expression,HMO6.A1 cells [1],not
same,Stimulated HMO6 cell expressed active substance(s),HMO6.A1 cells [1],None
TNF-α,Expression of MIP-1α,HMO6.A1 cells [1]; [7],newly induced
same,Expression of TNF-α,HMO6.A1 cells [1]; [7],newly induced
same,MIP-1α expression,"HMO6.A1 cells [1]; HMO6.A1, 24 hr treatment",detected; also recorded: induced
same,P2Y2 receptor expression,HMO6.A1 cells [1],induced; also recorded: expressed
same,B7-2 mRNA expression,HMO6.A1 cells [1],induced; also recorded: expressed
same,TNF-α gene expression,"HMO6.A1 cells [1]; HMO6.A1, treatment for 4 hr",recognized; also recorded: induced
same,Stimulated HMO6 cell expressed active substance(s),HMO6.A1 cells [1]; MIP-1α expression,MIP-1α
same,Stimulated HMO6 cell expressed active substance(s),HMO6.A1 cells [1]; TNF-α expression,TNF-α
C[C@H](CCC(=O)O)C[C@H](C)C[C@H](C)C(=O)/C=C(\O)[C@H](C)C[C@H](C)C/C=C/[C@@H](C)[C@@H](O)[C@@H](C)[C@@H](O)C[C@@H]1CC[C@@](C)([C@H]2CC[C@@](C)([C@@H](C)O)O2)O1 [ionomycin],[Ca2+]i response,HMO6.A1 cells [2],considerably larger than the ATP-induced response
NH2-GSNKGAIIGLM-COOH (H-GSNKGAIIGLM-OH) [Aβ25-35],MIP-1α amount of release,HMO6.A1 cells [3],very low
same,TNF-α production (ELISA),"HMO6.A1 cells [3]; HMO6.A1, 48 hours stimulation, spent media",marked increase
same,levels of IL-8 in the supernatant,HMO6.A1 cells [3],greater
same,CXCR4 expression,"HMO6.A1 cells [1]; HMO6.A1, 6 hr",increased
same,IL-1β expression,"HMO6.A1 cells [1]; HMO6.A1, 6 hr",no change
same,IL-6 expression,"HMO6.A1 cells [1]; HMO6.A1, 6 hr",no change
same,IL-8 mRNA expression,"HMO6.A1 cells [1]; HMO6.A1, 6 hr",elevated
same,IL-10 expression,"HMO6.A1 cells [1]; HMO6.A1, 6 hr",not detected
same,IL-12 expression,"HMO6.A1 cells [1]; HMO6.A1, 6 hr",elevated
same,MCP mRNA expression,"HMO6.A1 cells [1]; HMO6.A1, 6 hr",elevated
same,MIP-1α mRNA expression,"HMO6.A1 cells [1]; HMO6.A1, 6 hr",not expressed
same,MIP-1β expression,"HMO6.A1 cells [1]; HMO6.A1, 6 hr",No change
same,TNF-α expression,"HMO6.A1 cells [1]; HMO6.A1, 6 hr incubation",not induced
same,TNF-α expression,"HMO6.A1 cells [1]; HMO6.A1, after 24 hr",induced
same,TNF-α expression,"HMO6.A1 cells [1]; HMO6.A1, after 24 hr, listed as Aβ",detected; also recorded: induced
same,Stimulated HMO6 cell expressed active substance(s),HMO6.A1 cells [1]; Elevated IL-12 expression,Elevated IL-12
same,Stimulated HMO6 cell expressed active substance(s),HMO6.A1 cells [1]; TNF-α expression,TNF-α
same,IL-1β expression,[4],slightly increased
same,IL-4 expression,[4],not recognized
same,IL-8 mRNA,[4],up-regulated
same,IL-10 expression,[4],increased
same,IL-12 expression,[4],elevated
same,IL-13 expression,[4],not recognized
same,MCP mRNA,[4],up-regulated
same,MIP-1α mRNA,[4],up-regulated
same,MIP-1β mRNA,[4],up-regulated
same,TNF-α expression,[4],markedly elevated
same,IL-6 levels in the culture supernatant,[5]; 48 hours stimulation,not increased
same,MIP-1α levels,"[5]; HM, 48 hours",elevated
same,release of IL-1β into culture medium,"[5]; HM, 48 hours stimulation",demonstrated
same,TNF-α production (ELISA),"[5]; HM, 48 hours stimulation, spent media",marked increase
same,levels of IL-8 in the supernatant,"[5]; HM, 48 hours",greater
GM-CSF: granulocyte-macrophage colony-stimulating factor (GIBCO-BRL),P2Y2 receptor expression,HMO6.A1 cells [1],expressed
same,B7-2 mRNA expression,HMO6.A1 cells [1],not
same,increase in microglial population,[6],3-4 fold
Nc1ncnc2c1ncn2[C@@H]1O[C@H](COP(=O)(O)OP(=O)(O)OP(=O)(O)O)[C@@H](O)[C@H]1O [ATP],[Ca2+]i response,HMO6.A1 cells [2],increase; also recorded: rapid and transient
lipopolysaccharide [LPS],MIP-1α amount of release,HMO6.A1 cells [3],very low
same,levels of IL-8 in the supernatant,HMO6.A1 cells [3],greater
same,CXCR4 expression,"HMO6.A1 cells [1]; HMO6.A1, 6 hr",increased
same,TNF-α expression,"HMO6.A1 cells [1]; HMO6.A1, 6 hr incubation",not induced
same,P2Y2 receptor expression,HMO6.A1 cells [1],expressed
same,B7-2 mRNA expression,HMO6.A1 cells [1],not
same,TNF-α expression,"HMO6.A1 cells [1]; HMO6.A1, after 24 hr",induced
same,IL-6 levels in the culture supernatant,[5]; 48 hours stimulation,increased
same,release of IL-1β into culture medium,"[5]; HM, 48 hours stimulation",demonstrated
same,levels of IL-8 in the supernatant,"[5]; HM, 48 hours",greater
"IFN-γ: recombinant human IFN-γ (500 IU/ml, LG Chem) (protein, UniProt P01579 24-161, looked up) Interferon gamma: QDPYVKEAENLKKYFNAGHSDVADNGTLFLGILKNWKEESDRKIMQSQIVSFYFKLFKNFKDDQSIQKSVETIKEDMNVKFFNSNKKKRDDFEKLTNYSVTDLNVQRKAIHELIQVMAELSPAAKTGKRKRSQMLFRG",P2Y2 receptor expression,HMO6.A1 cells [1],expressed
same,B7-2 mRNA expression,HMO6.A1 cells [1],not
